Laboratory results published in US20190092802A1, “ANTAGONISTS OF NK1 RECEPTORS DERIVED FROM CARBOHYDRATES, PRODUCTION METHOD AND MEDICAL USE” (CONSEJO SUPERIOR DE INVESTIGACIONES CIENTIFICAS (CSIC), priority 2015, published 2019).
“Also recorded” adds a separate entry of the source.

Columns and labels:
[1] = test system: A549 human cells from lung adenocarcinoma; assay: MTT cell viability assay, A549; format: cell-based; settings: for IC50: A549, 48 hours exposure, MTT; for anticancer activity against the cancer line (in words): A549 lung cancer cells
[2] = test system: MRC5 non-malignant human lung cells; assay: MTT cell viability assay, MRC-5; format: cell-based
NK1 receptor [3] = target: T1, NK1 receptor (Homo sapiens, UniProt P25103); assay: IP-One assay (SP-induced IP1 accumulation in CHO cells transfected with NK1); format: cell-based; design: expressed in transfected cells; host or cells: CHO cells, transient electroporation
Protocol: Non-essential amino acids were also added to the medium (Invitrogen).
Transient transfection of the cell lines was carried out by electroporation in a volume of 300 μL with a total of 10 μg DNA (pRK5 Neo-NK1 wild type) plasmid (using up to 500 ng of pRK5como carrier DNA to achieve 10 μg) and with 10^7 cells in the electroporation buffer (50 mM K2HPO4, 20 mM CH3COOK, 20 mM KOH and 26 mM MgSO4, pH 7.4). After electroporation (280 V, 1 mF, GeneZapper 450/2500; IBI, New Haven, Conn., USA), the cells were suspended in a complete medium and seeded on well culture plates with a density of 10^5 per well. The 96-well culture plates were first covered with polyornithine diluted in PBS, then incubated at 37° C. for 30 minutes and they were then washed with PBS before being seeded.
The activation and inhibition of the route of the IP by the NK1 receptor agonists and antagonists, respectively, was determined using the dynamic IP-One kit (Cisbio Bioassays, Bagnols-sur-Cèze, France). After transfection, 10^5 cells were distributed in 100 pll of a complete medium into a 96-well assay plate (Greiner Bio-One, Courtaboeuf, France). After 24 hours, the medium was eliminated and replaced by 40 μl of an incubation medium that contained the agonist and/or antagonist in an appropriate concentration.
Target sequence in this assay (P25103 whole entry, species assumed): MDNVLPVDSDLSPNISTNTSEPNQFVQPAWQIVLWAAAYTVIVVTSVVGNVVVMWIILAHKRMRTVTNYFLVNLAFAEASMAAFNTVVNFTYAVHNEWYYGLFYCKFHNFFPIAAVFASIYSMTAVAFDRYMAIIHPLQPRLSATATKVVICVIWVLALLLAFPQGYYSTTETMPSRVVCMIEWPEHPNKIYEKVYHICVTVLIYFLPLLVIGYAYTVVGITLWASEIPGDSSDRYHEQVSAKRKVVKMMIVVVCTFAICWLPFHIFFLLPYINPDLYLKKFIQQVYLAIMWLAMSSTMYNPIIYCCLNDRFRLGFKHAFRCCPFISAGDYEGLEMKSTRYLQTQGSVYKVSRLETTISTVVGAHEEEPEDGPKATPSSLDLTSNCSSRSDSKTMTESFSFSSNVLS

NK1 receptor [4] = target: T1, NK1 receptor; assay: Displacement of marked SP ([125I]BH-SP); format: binding; settings: Concentration 6.0E−05 M; marked SP 0.15 nM, 60 minutes at room temperature
Target sequence in this assay (P25103 whole entry): as the sequence (P25103 whole entry, species assumed) above

[5] = Homo sapiens, MRC5, MRC-5, 48 hours exposure

Compound	anticancer activity against the cancer line (in words) [1]	IC50 ([1]; Homo sapiens) [µM]	IC50 [2, 5] [µM]	% Inhibition of the control specific affinity (NK1 receptor [4]) [%]	other results
(R)-{1-[3,5-bis-(trifluoromethyl)phenyl]ethyl} 2-O-p-fluorobenzyl-(R)-[4,5-O-benzylidene]-β-D-D-galactopyranoside [Compound 1]	most active	–	–	–	IC50 [1]: 28 ± 6.85 µM; IC50 ([2]; MRC-5, 48 hours exposure): 141 ± 1.82 µM
COc1ccccc1CN[C@H]1C2CCN(CC2)[C@H]1C(c1ccccc1)c1ccccc1 [CP-96345, reference compound]	–	46.8 ± 8.89	57.9 ± 8.07	–	–
C[C@@H](O[C@H]1OCCN(Cc2n[nH]c(=O)[nH]2)[C@H]1c1ccc(F)cc1)c1cc(C(F)(F)F)cc(C(F)(F)F)c1 [Aprepitant, reference compound]	–	15.7 ± 3.46	22.1 ± 6.92	–	–
CC(=O)N[C@@H](Cc1c[nH]c2ccccc12)C(=O)OCc1cc(C(F)(F)F)cc(C(F)(F)F)c1 [L-732,138, reference compound]	–	–	–	–	Kinact (NK1 receptor [3]; inhibition of substance P (SP), dose-response curves, IP-One assay): 8.37E−08±2.63 M; SP inhibition (NK1 receptor [3]; ligand concentration of 10^−6M): 69%
C[C@@H](O[C@H]1OC[C@@H]2OC(C)(C)O[C@@H]2[C@H]1OCc1ccc(F)cc1)c1cc(C(F)(F)F)cc(C(F)(F)F)c1 [Compound 8]	–	–	–	≥100	–
C[C@@H](O[C@H]1O[C@@H]2CO[C@@H](c3ccccc3)O[C@@H]2[C@H](O)[C@H]1OCc1ccc(F)cc1)c1cc(C(F)(F)F)cc(C(F)(F)F)c1 [Compound 2, (R)-{1-[3,5-bis-(trifluoromethyl)phenyl]ethyl} 2-O-p-fluorobenzyl-(R)-[4,5-O-benzylidene]-α-D-galactopyranoside]	most active; also recorded: matches those of cisplatin	19.3 ± 7.93	120 ± 3.45	≥100	NK1 receptor antagonist activity (in words) (NK1 receptor [3]; IP-One assay, inhibition of SP activity): excellent inhibitors of SP activity; also recorded: greatest antagonist activity
